{
  "source": "patent US12227509B2",
  "about": "“Dihydropyrazolopyrazinone derivative having MGAT2 inhibitory activity” (Shionogi & Co., Ltd., priority 2019, dated 2025)",
  "data": [
    {"biological_target": "recombinant human MGAT2 (Homo sapiens (Human), UniProt Q3SYC2)", "sequence (Q3SYC2 whole entry)": "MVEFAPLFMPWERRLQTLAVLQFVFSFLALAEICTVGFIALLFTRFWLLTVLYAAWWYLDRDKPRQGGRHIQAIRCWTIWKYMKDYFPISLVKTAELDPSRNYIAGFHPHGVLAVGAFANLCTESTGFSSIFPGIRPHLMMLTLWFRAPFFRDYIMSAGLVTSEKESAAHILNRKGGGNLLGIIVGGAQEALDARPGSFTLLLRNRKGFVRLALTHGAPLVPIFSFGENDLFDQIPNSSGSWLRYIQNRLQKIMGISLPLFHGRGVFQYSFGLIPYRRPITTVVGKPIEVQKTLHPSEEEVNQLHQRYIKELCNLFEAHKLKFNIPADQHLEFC", "experiment": "Measurement of human MGAT2 inhibitory activity", "format": "biochemical", "details": "concentration exhibiting 50% enzyme inhibition; recombinant human MGAT2, 2-Oleoylglycerol/Oleoyl-CoA", "protocol": "(§1) A full-length human MGAT2 gene to which a Flag-tag had been added at the N-terminal was inserted into pFastBac (from Invitrogen). A recombinant baculovirus was produced in accordance with the protocol for a Bac-to-Bac baculovirus expression system (produced by Invitrogen), and Sf-9 cells were infected therewith. The cells were collected and sonicated, and then the membrane fraction was collected through centrifugation. Western blotting analysis with an anti-Flag antibody was performed for the membrane fraction to confirm expression, and the membrane fraction was used as a recombinant human MGAT2 enzyme solution.\n(§2) Solutions of the compounds of the present invention in DMSO were each aliquoted into 0.2-μL portions in a 384-well polystyrene microplate produced by Corning Incorporated, and 5 μL of an enzyme solution prepared with an assay buffer (100 mmol/L phosphate buffer (pH 7.4) containing 2 mmol/L DTT) and 5 μL of a substrate solution (100 mmol/L phosphate buffer (pH 7.4), 30 μmol/L 2-Oleoylglycerol, 10 μmol/L Oleoyl-CoA) were added thereto, and the resultant was stirred and centrifuged, and incubated in a moist chamber at room temperature for 1 hour. After enzymatic reaction, 50 μL of a quenching solution (containing 0.2 μmol/L Diolein-d5, 0.4% formic acid, and 50% isopropanol) containing Internal Standard (IS) was added to terminate the reaction, and the resultant was sealed in a plate produced by Shimadzu GLC Ltd., and then stirred and centrifuged, and measurement was performed by using an electrospray ionization method with a RapidFire360 and Agilent 6550 Q-TOF mass spectrometer. Diolein as a reaction product (P) of 2-Oleoylglycerol as the substrate and an ammonium adduct ion of the IS were detected, and the peak intensity ratio, P/IS, was calculated from the peak heights to evaluate the inhibitory activity. Inhibitory activities with/without addition of enzyme were defined as Control (+)/Control (−), respectively, and the respective % inhibitions were defined as 0% inhibition and 100% inhibition. The inhibitory activity was calculated from formula below with TIBCO Spotfire (produced by TIBCO Software Inc.)\n(§3) Inhibitory activity (%)=[1−{Sample−Control (−)}/{Control (+)−Control (−)}]*100 where Sample indicates a peak intensity ratio: P/IS, when the compound of the present invention was added.", "units": {"IC50": "nM"}, "values": [
      {"smiles": "Cc1c(F)cc(-c2nn3c(c2NC(=O)CS(C)(=O)=O)C(=O)N[C@]2(CCc4cc(OCC(F)(F)F)ccc42)C3)cc1F", "note": "[Compound I-101]", "IC50": 1.36},
      {"smiles": "CCS(=O)(=O)CC(=O)Nc1c(-c2ccc(F)cn2)nn2c1C(=O)N[C@@]1(CCOc3cc(F)cc(F)c31)C2", "note": "[Compound I-118]", "IC50": 3.76},
      {"smiles": "CS(=O)(=O)CC(=O)Nc1c(-c2ccc(C3CC3)cn2)nn2c1C(=O)N[C@]1(CCc3cc(OCC(F)(F)F)ccc31)C2", "note": "[Compound I-56]", "IC50": 1.03},
      {"smiles": "CS(=O)(=O)CC(=O)Nc1c(-c2ccc(F)cn2)nn2c1C(=O)N[C@@]1(CCOc3cc(F)cc(F)c31)C2", "note": "[Compound I-119]", "IC50": 2.98},
      {"smiles": "Cc1ccc(-c2nn3c(c2NC(=O)CS(C)(=O)=O)C(=O)N[C@]2(CCc4cc(OCC(F)(F)F)ccc42)C3)cc1", "note": "[Compound I-76]", "IC50": 1.94},
      {"smiles": "CS(=O)(=O)CC(=O)Nc1c(-c2cc(F)cc(F)c2)nn2c1C(=O)N[C@]1(CCc3cc(OCC(F)(F)F)ccc31)C2", "note": "[Compound I-98]", "IC50": 2.15},
      {"smiles": "CS(=O)(=O)CC(=O)Nc1c(-c2ccc(F)cc2)nn2c1C(=O)N[C@@]1(CCc3cc(F)cc(F)c31)C2", "note": "[Compound I-129]", "IC50": 10},
      {"smiles": "Cc1ccc(-c2nn3c(c2NC(=O)CS(C)(=O)=O)C(=O)NC2(CN(c4ccc(C(F)(F)F)cc4)C2)C3)nc1", "note": "[Compound I-65]", "IC50": 0.935},
      {"smiles": "Cc1cccc(-c2nn3c(c2NC(=O)CS(C)(=O)=O)C(=O)N[C@@]2(CCc4cc(OCC(F)(F)F)ccc42)C3)c1", "note": "[Compound I-21]", "IC50": 3.27},
      {"smiles": "CS(=O)(=O)CC(=O)Nc1c(-c2ccc(F)c(F)c2)nn2c1C(=O)N[C@]1(CCOc3cc(F)cc(F)c31)C2", "note": "[Compound I-152]", "IC50": 8.24},
      {"smiles": "CCOc1ccc2c(c1)CC[C@@]21Cn2nc(-c3ccc(F)c(F)c3)c(NC(=O)CS(C)(=O)=O)c2C(=O)N1", "note": "[Compound I-69]", "IC50": 2.78},
      {"smiles": "CCCCCc1nn2c(c1NC(=O)CS(C)(=O)=O)C(=O)N[C@]1(CCc3cc(OCC(F)(F)F)ccc31)C2", "note": "[Compound I-95]", "IC50": 1.48},
      {"smiles": "CS(=O)(=O)CC(=O)Nc1c(CCC2CC2)nn2c1C(=O)N[C@@]1(CCOc3cc(OCC(F)(F)F)ccc31)C2", "note": "[Compound I-109]", "IC50": 1.18},
      {"smiles": "CCCCCc1nn2c(c1NC(=O)CS(C)(=O)=O)C(=O)N[C@@]1(CCc3cc(OCC(F)(F)F)ccc31)C2", "note": "[Compound I-47]", "IC50": 2.73},
      {"smiles": "CS(=O)(=O)CC(=O)Nc1c(-c2ccc(C3CC3)cn2)nn2c1C(=O)N[C@@]1(CCc3cc(OCC(F)(F)F)ccc31)C2", "note": "[Compound I-57]", "IC50": 1.14},
      {"smiles": "Cc1cc(F)ccc1-c1nn2c(c1NC(=O)CS(C)(=O)=O)C(=O)N[C@@]1(CCc3cc(OCC(F)(F)F)ccc31)C2", "note": "[Compound I-35]", "IC50": 32.2},
      {"smiles": "CS(=O)(=O)CC(=O)Nc1c(-c2ccccn2)nn2c1C(=O)N[C@@]1(CCc3cc(OCC(F)(F)F)ccc31)C2", "note": "[Compound I-19]", "IC50": 5.19},
      {"smiles": "Cc1ccc(-c2nn3c(c2NC(=O)CS(C)(=O)=O)C(=O)N[C@]2(CCc4cc(OCC(F)(F)F)ccc42)C3)nc1", "note": "[Compound I-5]", "IC50": 2.81},
      {"smiles": "CS(=O)(=O)CC(=O)Nc1c(-c2ccccn2)nn2c1C(=O)N[C@]1(CCc3cc(OCC(F)(F)F)ccc31)C2", "note": "[Compound I-18]", "IC50": 3.6},
      {"smiles": "CS(=N)(=O)CC(=O)Nc1c(-c2ccc(C(F)(F)F)cc2)nn2c1C(=O)N[C@@]1(CCc3cc(OCC(F)(F)F)ccc31)C2", "note": "(stereo partly drawn) [Compound I-112]", "IC50": 3.96},
      {"smiles": "CS(=O)(=O)CC(=O)Nc1c(-c2ccc(C(F)(F)F)cc2)nn2c1C(=O)N[C@@]1(CCc3cc(OCC(F)(F)F)ccc31)C2", "note": "[Compound I-25]", "IC50": 1.33},
      {"smiles": "CCCCCc1nn2c(c1NC(=O)CS(C)(=O)=O)C(=O)N[C@]1(CCc3cc(OCC)ccc31)C2", "note": "[Compound I-115]", "IC50": 14.5},
      {"smiles": "Cc1ccc(-c2nn3c(c2NC(=O)CC(F)(F)F)C(=O)N[C@@]2(CCc4cc(OCC(F)(F)F)ccc42)C3)nc1", "note": "[Compound I-43]", "IC50": 368}
    ]},
    {"biological_target": "recombinant human MGAT2 (Homo sapiens (Human), UniProt Q3SYC2)", "experiment": "Measurement of human MGAT2 inhibitory activity", "format": "biochemical", "details": "concentration exhibiting 50% enzyme inhibition; recombinant human MGAT2, 2-Oleoylglycerol/Oleoyl-CoA; listed as 1-63", "protocol": "as §1, §2, §3", "units": {"IC50": "nM"}, "values": [
      {"smiles": "CS(=O)(=O)CC(=O)Nc1c(CCCC(F)(F)F)nn2c1C(=O)NC1(CCc3cc(OCC(F)(F)F)ccc31)C2", "note": "(single isomer, unassigned) [Compound I-63]", "IC50": 1.24}
    ]}
  ]
}
